Experimental data taken from ChEMBL document CHEMBL1139228, “Saliniketals A and B, bicyclic polyketides from the marine actinomycete Salinispora arenicola” (J Nat Prod, 2007).
Activity calls are given as the source filed them. The rule behind the calls is not given here.

What was measured:
[1] = target: T1, Ornithine decarboxylase (Homo sapiens) (UniProt P11926); assay: Inhibition of ornithine decarboxylase upto 1 mM
T1 sequence (whole entry): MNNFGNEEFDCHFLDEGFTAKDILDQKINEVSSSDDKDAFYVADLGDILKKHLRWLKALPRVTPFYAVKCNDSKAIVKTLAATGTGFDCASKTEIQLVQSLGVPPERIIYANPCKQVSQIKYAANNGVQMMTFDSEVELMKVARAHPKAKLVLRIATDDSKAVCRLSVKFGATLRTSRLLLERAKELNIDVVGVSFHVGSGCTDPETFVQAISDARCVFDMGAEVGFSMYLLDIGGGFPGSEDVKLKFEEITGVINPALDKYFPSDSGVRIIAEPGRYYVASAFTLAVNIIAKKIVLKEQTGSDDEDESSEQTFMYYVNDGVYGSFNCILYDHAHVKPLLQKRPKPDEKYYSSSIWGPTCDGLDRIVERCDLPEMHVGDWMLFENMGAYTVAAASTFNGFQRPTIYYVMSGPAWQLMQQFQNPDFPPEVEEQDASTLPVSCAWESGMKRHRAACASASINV

[2] = target: T1, Ornithine decarboxylase (Homo sapiens); assay: Inhibition of ornithine decarboxylase induction expressed in T24 cells; assay type: cell-based; conditions: T-24
[3] = Inhibition of DNA dependent RNA polymerase in prokaryotes

Compound | Activity [1] | Activity [2] | Activity [3]
C[C@H]([C@H](O)[C@H](C)[C@@H](O)[C@@H](C)/C=C/C=C(/CO)C(N)=O)[C@@H]1O[C@@]2(C)CC[C@@H](O2)[C@H]1C | inactive | inactive | 
CO[C@H]1/C=C/O[C@@]2(C)Oc3c(C)c(O)c4c(O)c(cc(O)c4c3C2=O)NC(=O)/C(C)=C\C=C\[C@H](C)[C@H](O)[C@@H](C)[C@@H](O)[C@@H](C)[C@H](OC(C)=O)[C@@H]1C |  |  | Active
C/C(=C/C=C/[C@H](C)[C@H](O)[C@@H](C)[C@@H](O)[C@@H](C)[C@@H]1O[C@@]2(C)CC[C@@H](O2)[C@H]1C)C(N)=O | inactive | inactive | 
